Source: PubChem BioAssay (NCI)
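Results reflect a 48-hour exposure of cells in 96-well plates to compound at five concentrations. The concentration for 50% growth inhibition is given as GI50. At the TGI there is no net growth.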

Assays:
Assay in all cases: NCI tumour cell line growth inhibition, 48 h
IGROV1 ovarian = tested on: IGROV1 ovarian
SR leukemia = tested on: SR leukemia
HL-60(TB) leukemia = tested on: HL-60(TB) leukemia
TK-10 renal = tested on: TK-10 renal
UO-31 renal = tested on: UO-31 renal
NCI-H23 lung = tested on: NCI-H23 lung
BT-549 breast = tested on: BT-549 breast
SF-268 CNS = tested on: SF-268 CNS
KM12 colon = tested on: KM12 colon
SNB-75 CNS = tested on: SNB-75 CNS
NCI-H226 lung = tested on: NCI-H226 lung
SK-MEL-2 melanoma = tested on: SK-MEL-2 melanoma
SN12C renal = tested on: SN12C renal
SF-539 CNS = tested on: SF-539 CNS
U251 CNS = tested on: U251 CNS
HCT-116 colon = tested on: HCT-116 colon
HOP-92 NSCLC = tested on: HOP-92 NSCLC
SK-MEL-28 melanoma = tested on: SK-MEL-28 melanoma
COLO 205 colon = tested on: COLO 205 colon
SK-MEL-5 melanoma = tested on: SK-MEL-5 melanoma
A498 renal = tested on: A498 renal
MDA-MB-231 breast = tested on: MDA-MB-231 breast
T-47D breast = tested on: T-47D breast
SK-OV-3 ovarian = tested on: SK-OV-3 ovarian
UACC-62 melanoma = tested on: UACC-62 melanoma
SW-620 colon = tested on: SW-620 colon
HT29 colon = tested on: HT29 colon
OVCAR-5 ovarian = tested on: OVCAR-5 ovarian
PC-3 prostate = tested on: PC-3 prostate
786-0 renal = tested on: 786-0 renal
UACC-257 melanoma = tested on: UACC-257 melanoma
RPMI-8226 leukemia = tested on: RPMI-8226 leukemia
NCI-H522 lung = tested on: NCI-H522 lung
M14 melanoma = tested on: M14 melanoma
CAKI-1 renal = tested on: CAKI-1 renal
K-562 leukemia = tested on: K-562 leukemia
HS 578T breast = tested on: HS 578T breast
LOX IMVI melanoma = tested on: LOX IMVI melanoma
OVCAR-8 ovarian = tested on: OVCAR-8 ovarian
MALME-3M melanoma = tested on: MALME-3M melanoma
NCI/ADR-RES ovarian = tested on: NCI/ADR-RES ovarian
DU-145 prostate = tested on: DU-145 prostate
OVCAR-3 ovarian = tested on: OVCAR-3 ovarian
SNB-19 CNS = tested on: SNB-19 CNS
HCC-2998 colon = tested on: HCC-2998 colon
A549 NSCLC = tested on: A549 NSCLC
ACHN renal = tested on: ACHN renal
HCT-15 colon = tested on: HCT-15 colon
MDA-MB-435 = tested on: MDA-MB-435
EKVX NSCLC = tested on: EKVX NSCLC
RXF 393 renal = tested on: RXF 393 renal
OVCAR-4 ovarian = tested on: OVCAR-4 ovarian
MCF7 breast = tested on: MCF7 breast
NCI-H460 lung = tested on: NCI-H460 lung
HOP-62 NSCLC = tested on: HOP-62 NSCLC
SF-295 CNS = tested on: SF-295 CNS
CCRF-CEM leukemia = tested on: CCRF-CEM leukemia
MOLT-4 leukemia = tested on: MOLT-4 leukemia
MDA-N = tested on: MDA-N

C=C(C)[C@@H]1CC[C@]2(C(=O)NCCNCCNCCN)CC[C@]3(C)[C@H](CC[C@@H]4[C@@]5(C)CC[C@H](O)C(C)(C)[C@@H]5CC[C@]43C)[C@@H]12
GI50 (IGROV1 ovarian): 16.1 µM | TGI (IGROV1 ovarian): 32.5 µM | GI50 (SR leukemia): 6.76 µM | TGI (SR leukemia): > 100 µM | GI50 (HL-60(TB) leukemia): 7.33 µM | TGI (HL-60(TB) leukemia): 31.2 µM | GI50 (TK-10 renal): 15.8 µM | TGI (TK-10 renal): 31.3 µM | GI50 (UO-31 renal): 11.7 µM | TGI (UO-31 renal): 24.7 µM | GI50 (NCI-H23 lung): 14.7 µM | TGI (NCI-H23 lung): 32 µM | GI50 (BT-549 breast): 15 µM | TGI (BT-549 breast): 57.5 µM | GI50 (SF-268 CNS): 13.5 µM | TGI (SF-268 CNS): 32.3 µM | GI50 (KM12 colon): 6.81 µM | TGI (KM12 colon): 26.2 µM | GI50 (SNB-75 CNS): 11.1 µM | TGI (SNB-75 CNS): 27.6 µM | GI50 (NCI-H226 lung): 15.5 µM | TGI (NCI-H226 lung): 40.4 µM | GI50 (SK-MEL-2 melanoma): 16.8 µM | TGI (SK-MEL-2 melanoma): 37.3 µM | GI50 (SN12C renal): 13.5 µM | TGI (SN12C renal): 33.2 µM | GI50 (SF-539 CNS): 11.1 µM | TGI (SF-539 CNS): 23.7 µM | GI50 (U251 CNS): 12.7 µM | TGI (U251 CNS): 27.1 µM | GI50 (HCT-116 colon): 4.4 µM | TGI (HCT-116 colon): 18.7 µM | GI50 (HOP-92 NSCLC): 4.61 µM | TGI (HOP-92 NSCLC): 19.7 µM | GI50 (SK-MEL-28 melanoma): 16 µM | TGI (SK-MEL-28 melanoma): 30.6 µM | GI50 (COLO 205 colon): 15.9 µM | TGI (COLO 205 colon): 34.6 µM | GI50 (SK-MEL-5 melanoma): 11.1 µM | TGI (SK-MEL-5 melanoma): 23.4 µM | GI50 (A498 renal): 19.6 µM | TGI (A498 renal): 64.7 µM | GI50 (MDA-MB-231 breast): 15.1 µM | TGI (MDA-MB-231 breast): 37.1 µM | GI50 (T-47D breast): 10.9 µM | TGI (T-47D breast): 32.3 µM | GI50 (SK-OV-3 ovarian): 17.5 µM | TGI (SK-OV-3 ovarian): 36.9 µM | GI50 (UACC-62 melanoma): 9.29 µM | TGI (UACC-62 melanoma): 23 µM | GI50 (SW-620 colon): 14.7 µM | TGI (SW-620 colon): 34.4 µM | GI50 (HT29 colon): 14.6 µM | TGI (HT29 colon): 34 µM | GI50 (OVCAR-5 ovarian): 18.6 µM | TGI (OVCAR-5 ovarian): 35 µM | GI50 (PC-3 prostate): 2.95 µM | TGI (PC-3 prostate): 18.6 µM | GI50 (786-0 renal): 12.4 µM | TGI (786-0 renal): 25.2 µM | GI50 (UACC-257 melanoma): 15.1 µM | TGI (UACC-257 melanoma): 33.1 µM | GI50 (RPMI-8226 leukemia): 2.81 µM | TGI (RPMI-8226 leukemia): 27.6 µM | GI50 (NCI-H522 lung): 10.3 µM | TGI (NCI-H522 lung): 25.4 µM | GI50 (M14 melanoma): 11 µM | TGI (M14 melanoma): 28.7 µM | GI50 (CAKI-1 renal): 5.92 µM | TGI (CAKI-1 renal): 20.1 µM | GI50 (K-562 leukemia): 6.9 µM | TGI (K-562 leukemia): > 100 µM | GI50 (HS 578T breast): 20.1 µM | TGI (HS 578T breast): 66.7 µM | GI50 (LOX IMVI melanoma): 14.9 µM | TGI (LOX IMVI melanoma): 28.6 µM | GI50 (OVCAR-8 ovarian): 18.8 µM | TGI (OVCAR-8 ovarian): 47.1 µM | GI50 (MALME-3M melanoma): 14.6 µM | TGI (MALME-3M melanoma): 28.4 µM | GI50 (NCI/ADR-RES ovarian): 18.9 µM | TGI (NCI/ADR-RES ovarian): 59 µM | GI50 (DU-145 prostate): 14.1 µM | TGI (DU-145 prostate): 30.1 µM | GI50 (OVCAR-3 ovarian): 12.2 µM | TGI (OVCAR-3 ovarian): 25.7 µM | GI50 (SNB-19 CNS): 12.9 µM | TGI (SNB-19 CNS): 28.2 µM | GI50 (HCC-2998 colon): 14.1 µM | TGI (HCC-2998 colon): 29.5 µM | GI50 (A549 NSCLC): 4.97 µM | TGI (A549 NSCLC): 21.4 µM | GI50 (ACHN renal): 12 µM | TGI (ACHN renal): 27.3 µM | GI50 (HCT-15 colon): 11.5 µM | TGI (HCT-15 colon): 26.1 µM | GI50 (MDA-MB-435): 13.4 µM | TGI (MDA-MB-435): 27.2 µM | GI50 (EKVX NSCLC): 10.5 µM | TGI (EKVX NSCLC): 26.6 µM | GI50 (RXF 393 renal): 13.2 µM | TGI (RXF 393 renal): 27.2 µM | GI50 (OVCAR-4 ovarian): 14.1 µM | TGI (OVCAR-4 ovarian): 33 µM | GI50 (MCF7 breast): 13.2 µM | TGI (MCF7 breast): 29.3 µM | GI50 (NCI-H460 lung): 14.7 µM | TGI (NCI-H460 lung): 32 µM | GI50 (HOP-62 NSCLC): 16.5 µM | TGI (HOP-62 NSCLC): 33.5 µM | GI50 (SF-295 CNS): 13.8 µM | TGI (SF-295 CNS): 30.3 µM | GI50 (CCRF-CEM leukemia): 4.55 µM | TGI (CCRF-CEM leukemia): 78.2 µM | GI50 (MOLT-4 leukemia): 11.5 µM | TGI (MOLT-4 leukemia): > 100 µM

O=c1[nH]c(=O)n(COCCO)c2ccc(Br)cc12
TGI (IGROV1 ovarian): > 100 µM | TGI (SR leukemia): > 100 µM | TGI (HL-60(TB) leukemia): > 100 µM | TGI (TK-10 renal): > 100 µM | TGI (UO-31 renal): > 100 µM | TGI (KM12 colon): > 100 µM | TGI (SNB-75 CNS): > 100 µM | TGI (NCI-H226 lung): > 100 µM | TGI (SK-MEL-2 melanoma): > 100 µM | TGI (SN12C renal): > 100 µM | TGI (SF-539 CNS): > 100 µM | TGI (U251 CNS): > 100 µM | TGI (HCT-116 colon): > 100 µM | TGI (HOP-92 NSCLC): > 100 µM | TGI (SK-MEL-28 melanoma): > 100 µM | TGI (COLO 205 colon): > 100 µM | TGI (SK-MEL-5 melanoma): > 100 µM | TGI (A498 renal): > 100 µM | TGI (MDA-MB-231 breast): > 100 µM | TGI (SK-OV-3 ovarian): > 100 µM | TGI (UACC-62 melanoma): > 100 µM | TGI (SW-620 colon): > 100 µM | TGI (HT29 colon): > 100 µM | TGI (OVCAR-5 ovarian): > 100 µM | TGI (786-0 renal): > 100 µM | TGI (UACC-257 melanoma): > 100 µM | TGI (M14 melanoma): > 100 µM | TGI (CAKI-1 renal): > 100 µM | TGI (K-562 leukemia): > 100 µM | TGI (LOX IMVI melanoma): > 100 µM | TGI (OVCAR-8 ovarian): > 100 µM | TGI (NCI/ADR-RES ovarian): > 100 µM | TGI (DU-145 prostate): > 100 µM | TGI (OVCAR-3 ovarian): > 100 µM | TGI (SNB-19 CNS): > 100 µM | TGI (A549 NSCLC): > 100 µM | TGI (ACHN renal): > 100 µM | TGI (HCT-15 colon): > 100 µM | TGI (MDA-MB-435): > 100 µM | TGI (EKVX NSCLC): > 100 µM | TGI (RXF 393 renal): > 100 µM | TGI (OVCAR-4 ovarian): > 100 µM | TGI (MCF7 breast): > 100 µM | TGI (NCI-H460 lung): > 100 µM | TGI (MDA-N): > 100 µM | TGI (SF-295 CNS): > 100 µM | TGI (CCRF-CEM leukemia): > 100 µM | TGI (MOLT-4 leukemia): > 100 µM
